Several values for one entry are separate records, joined by “and”; a condition that tells them apart may be missing. Equal values may be shown once.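 96-well plates; 48 h exposure; 5 concentrations. Endpoints by linear interpolation between flanking doses. Not reached: highest tested concentration assigned. GI50 marks 50% less growth. TGI: concentration producing complete growth inhibition.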

Eight molecules from PubChem BioAssay (NCI) can be followed below.

Holding throughout (test): growth of human tumour cells (NCI), 48 h
In assay [1] the test system is CAKI-1 renal.
Assay [2] relates to HCT-15 colon.
Assay [3] concerns HOP-62 NSCLC.
Assay [4] concerns HT29 colon.
For assay [5], the system named is NCI-H522 lung.
The subject of assay [6] is OVCAR-8 ovarian.
Assay [7] relates to PC-3 prostate.
In assay [8] the test system is SK-MEL-28 melanoma.
Assay [9] deals with SNB-19 CNS.
In assay [10] the test system is SW-620 colon.

Consider `CCN1CCN(c2cc(C(=O)Nc3cccc(Nc4ccc5c(OC)cccc5n4)c3)cc(C(F)(F)F)c2)CC1`, for which the GI50 is 0.917 µM in [1]; 0.797 µM in assay [2]; 1.02 µM in [3]; 0.572 µM in assay [4]; 1.01 µM in assay [5]; 1.97 µM in [6]. For the same molecule, the GI50 in assay [7] was 0.805 µM; in assay [8], 0.846 µM; in assay [9], 2.1 µM; in [10] it was 3.67 µM. Besides, the TGI came to 4.97 µM in [1]; 2.26 µM in assay [2]; 4.04 µM in assay [3]; 1.21 µM in [4]; 4 µM in [5]; 7.64 µM in assay [6]. The TGI in [7] stood at 2.5 µM; in [8], 2.2 µM; in assay [9], 7.01 µM; in assay [10], 8.77 µM.

For `Cc1ccc2oc(=O)c3c(O)c4cccc(OC5OC(C)C6O[C@@H](c7ccccc7)OC6C5OC5OC(C)C(O)C(O)C5O)c4c4oc(=O)c1c2c34` (stereo partly specified), the GI50 in assay [1] is 0.0415 µM; in [2], 0.261 µM; in assay [3], 0.105 µM; in assay [5], 0.104 µM; in assay [6], 0.0562 µM; in [8] it was 0.331 µM. For the same molecule, the GI50 in assay [9] was 0.0266 µM. Besides, the TGI was 1.5 µM and 5.01 µM in assay [2]; 1.6 µM and 0.734 µM in [3]; 5.12 µM in [4]; 0.294 µM and 1.38 µM in [5]; 2.74 µM and 1.43 µM in assay [6]; 1.4 µM in [7]. Moreover, the TGI in assay [8] is 1.88 µM and 2.01 µM; in assay [10], 2.43 µM and 7.53 µM.

With `Cc1nn(C)c2ncnc(N/N=C/c3cccc(O)c3O)c12`, the GI50 in [1] is 1.31 µM; in assay [2], 0.225 µM; in [3], 1.08 µM; in assay [4], 3.94 µM; in [5], 0.41 µM; in [6] it was 0.413 µM. Further, the GI50 in [7] was 0.545 µM; in assay [8], 0.455 µM; in [9], 0.664 µM; in [10], 0.48 µM. For the same molecule, the TGI in [1] is 16.5 µM; in assay [2], > 100 µM; in assay [3], 15.1 µM; in assay [4], > 100 µM; in assay [5], > 48.2 µM; in [6] it was > 100 µM. Also, the TGI in assay [7] was > 100 µM; in [8], > 100 µM; in assay [9] it was > 48.4 µM; in assay [10] it was > 100 µM.

Turning to `COc1cc(S(=O)(=O)Nc2nc(-c3ccc(N4C(=O)C(C)SC4c4ccccc4O)cc3)cs2)ccc1Cl` (stereo unspecified), the GI50 in [1] is 67.7 µM; in [2] it was 37.3 µM; in assay [3], 59.4 µM; in assay [4], 56.5 µM; in [5] it was 53.7 µM; in assay [6], 42.2 µM. The GI50 in assay [7] was 30.1 µM; in assay [8], 39.5 µM; in assay [9], 43.3 µM; in assay [10] it was 62 µM. Also, the TGI in assay [1], in [2], in assay [3], in assay [4], in assay [5] and in [6] was > 100 µM throughout. In addition, the TGI in [7], in [8], in assay [9] and in assay [10] was > 100 µM throughout.

In the case of `COC1=C(OC)C(=O)C(C/C=C(\C)CC/C=C(\C)CC/C=C(\C)CC/C=C(\C)CC/C=C(\C)CC/C=C(\C)CC/C=C(\C)CC/C=C(\C)CC/C=C(\C)CCC=C(C)C)=C(C)C1=O`, the GI50 in assay [1], in assay [2], in assay [3], in [4], in assay [5] and in [6] was > 100 µM in each case. Moreover, the GI50 in [7], in assay [8], in [9] and in [10] was > 100 µM each time. The TGI in [1], in [2], in assay [3], in assay [4], in [5] and in [6] was > 100 µM each time. Further, the TGI in assay [7], in [8], in assay [9] and in [10] was > 100 µM in each case.

Take `CN1CCN(CCCOc2ccc3nc(Nc4ccc(F)c(F)c4)ccc3c2)CC1`: the GI50 in [1] was 1.67 µM; in assay [2], 1.29 µM; in [3], 1.86 µM; in assay [4], 0.822 µM; in assay [5], 1.44 µM; in assay [6], 3.6 µM. The GI50 in assay [7] was 1.72 µM; in assay [8] it was 1.56 µM; in assay [9] it was 2.08 µM; in [10], 1.82 µM. Further, the TGI in assay [1] is 3.95 µM; in assay [2], 3.33 µM; in [3], 3.88 µM; in assay [4] it was 2.32 µM; in assay [5] it was 3.1 µM; in assay [6], 12.5 µM. Besides, the TGI in assay [7] turned out to be 3.72 µM; in assay [8] it was 3.2 µM; in assay [9], 4.79 µM; in [10], 3.71 µM.

As for `COc1cc(/C=C/C(=O)CC(=O)/C=C/c2cc(OC)c(O)c(OC)c2)cc(OC)c1O`, the GI50 in [1] was 21.1 µM; in assay [3], 19.6 µM; in assay [4] it was 26.3 µM; in assay [5], 3.75 µM; in assay [6], 18 µM; in [8] it was 14.1 µM. Besides, the TGI in assay [1] is 25 µM and > 100 µM; in [2] it was > 25 µM and 90.4 µM; in assay [3], 25 µM and > 100 µM; in assay [4], 25 µM and > 100 µM; in assay [5], 15 µM and 14 µM; in [6], 25 µM and 61.3 µM. Also, the TGI in assay [7] is 25 µM and 37.8 µM; in assay [8], 21.5 µM and 57.8 µM; in assay [9], 25 µM and > 100 µM; in [10], > 100 µM.

In the case of `CC1=C(CO)C(=O)O[C@@H]([C@@H](C)[C@H]2CC[C@H]3[C@@H]4C[C@H]5O[C@]56[C@@H](O)C=CC(=O)[C@]6(C)[C@H]4CC[C@]23C)C1`, the TGI in [1] stood at 0.773 µM; in assay [2], 1.94 µM; in assay [3] it was 2.48 µM; in assay [5], 0.114 µM; in assay [6], 1.76 µM; in assay [7], 2.46 µM. Further, the values for the TGI in assay [8], in [9] and in assay [10] were 2.29 µM, 6.07 µM and 0.603 µM, respectively. For the same molecule, the GI50 in assay [7] is 1.03 µM.
